Several values for one entry are separate records, joined by “and”; a condition that tells them apart may be missing. Identical values can stand only once. Like-named read-outs stand apart in the source and are kept apart here.
How the values were obtained:
[1] = biological target: T1, human recombinant adrenergic α2B receptor (Homo sapiens, UniProt P18089); experiment: Radioligand binding, adrenergic α2B ([3H]Rauwolscine); settings: for Percentage inhibition of ligand binding, Adrenergic α2B (0.03 μM): compound at 0.03 μM; for Ki: read-out: Ki α2B; for Percentage inhibition of ligand binding, Adrenergic α2B (0.03 μM) / Percentage inhibition of ligand binding, Adrenergic α2B: 0.03 µM
T1 construct: expressed in transfected cells; host or cells: CHO-K1
T1 sequence (P18089 1-450): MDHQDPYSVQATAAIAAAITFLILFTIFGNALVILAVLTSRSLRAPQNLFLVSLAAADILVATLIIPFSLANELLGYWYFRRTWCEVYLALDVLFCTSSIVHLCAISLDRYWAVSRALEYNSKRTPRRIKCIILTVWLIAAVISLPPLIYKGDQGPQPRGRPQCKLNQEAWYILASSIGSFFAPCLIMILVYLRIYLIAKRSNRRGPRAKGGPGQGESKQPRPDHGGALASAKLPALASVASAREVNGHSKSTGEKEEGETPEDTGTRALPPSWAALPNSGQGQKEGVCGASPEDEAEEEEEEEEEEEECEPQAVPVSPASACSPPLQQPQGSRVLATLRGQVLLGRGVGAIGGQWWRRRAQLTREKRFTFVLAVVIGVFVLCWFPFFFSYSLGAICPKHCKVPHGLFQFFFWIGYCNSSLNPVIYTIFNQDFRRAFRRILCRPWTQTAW
Method in brief: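 Values are percent inhibition of specific radioligand binding. The receptor, expressed in CHO-K1 cells, was exposed to 2.5 nM [3H]Rauwolscine at 25° C for 60 min, with 10 μM Prazosin marking non-specific binding.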

[2] = biological target: T2, human recombinant adrenergic α2A receptor (Homo sapiens, UniProt P08913); experiment: Radioligand binding, adrenergic α2A ([3H]MK-912); settings: for inhibition at 0.1 µM: read-out: Percentage inhibition of ligand binding, Adrenergic α2A (0.1 μM), compound at 0.1 μM; for inhibition at 0.1 µM / Percentage inhibition of ligand binding, Adrenergic α2A (0.1 μM) / inhibition at 0.03 µM: [3H]MK-912, repeat datapoints each shown; for Percentage inhibition of ligand binding, Adrenergic α2A (0.1 μM): compound at 0.1 μM; for inhibition at 0.03 µM: read-out: Percentage inhibition of ligand binding, Adrenergic α2A (0.03 μM), compound at 0.03 μM; for Percentage inhibition of ligand binding, Adrenergic α2A: 0.1 μM compound; for Percentage inhibition of ligand binding, Adrenergic α2A (0.1 μM) / Percentage inhibition of ligand binding, Adrenergic α2A: 0.1 µM
T2 construct: expressed in transfected cells; host or cells: insect Sf9 cells
T2 sequence (P08913 1-465): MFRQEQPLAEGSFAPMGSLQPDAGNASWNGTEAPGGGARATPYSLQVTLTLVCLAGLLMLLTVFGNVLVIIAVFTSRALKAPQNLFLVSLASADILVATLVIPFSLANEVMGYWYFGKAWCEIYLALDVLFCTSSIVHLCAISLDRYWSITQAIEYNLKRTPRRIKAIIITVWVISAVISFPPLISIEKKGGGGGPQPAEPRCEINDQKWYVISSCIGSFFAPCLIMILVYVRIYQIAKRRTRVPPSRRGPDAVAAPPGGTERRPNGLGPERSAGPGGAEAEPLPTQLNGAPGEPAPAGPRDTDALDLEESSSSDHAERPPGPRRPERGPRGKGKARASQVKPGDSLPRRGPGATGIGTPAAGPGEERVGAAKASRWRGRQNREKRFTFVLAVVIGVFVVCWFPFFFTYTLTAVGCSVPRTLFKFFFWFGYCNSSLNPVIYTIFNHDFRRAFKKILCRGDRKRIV
Method in brief: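 Receptor expressed in insect Sf9 cells, assayed in 50 mM Tris-HCl pH 7.4 with 12.5 mM MgCl2 and 2 mM EDTA. Compounds incubated with 1 nM [3H]MK-912 for 60 min at 25 °C; nonspecific binding defined with 10 μM WB-4101. Filter-bound radioactivity counted; values are percent inhibition of specific binding.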

[3] = biological target: T3, rat adrenergic α1B receptor (Rattus norvegicus, UniProt P15823); experiment: Radioligand binding, adrenergic α1B ([3H]Prazosin); settings: for inhibition at 0.1 µM: read-out: Percentage inhibition of ligand binding, Adrenergic α1B (0.1 μM), compound at 0.1 μM; for inhibition at 0.1 µM / inhibition at 0.03 µM / Percentage inhibition of ligand binding, Adrenergic α1B (0.1 μM): [3H]Prazosin, repeat datapoints each shown; for inhibition at 0.03 µM: read-out: Percentage inhibition of ligand binding, Adrenergic α1B (0.03 μM), compound at 0.03 μM; for Percentage inhibition of ligand binding, Adrenergic α1B (0.1 μM): compound at 0.1 μM; for Percentage inhibition of ligand binding, Adrenergic α1B: 0.1 μM compound; for Percentage inhibition of ligand binding, Adrenergic α1B (0.1 μM) / Percentage inhibition of ligand binding, Adrenergic α1B: 0.1 µM
T3 construct: rat adrenergic α1B receptor obtained from Wistar Rat liver; from tissue; host or cells: Wistar rat liver
T3 sequence (P15823 1-515): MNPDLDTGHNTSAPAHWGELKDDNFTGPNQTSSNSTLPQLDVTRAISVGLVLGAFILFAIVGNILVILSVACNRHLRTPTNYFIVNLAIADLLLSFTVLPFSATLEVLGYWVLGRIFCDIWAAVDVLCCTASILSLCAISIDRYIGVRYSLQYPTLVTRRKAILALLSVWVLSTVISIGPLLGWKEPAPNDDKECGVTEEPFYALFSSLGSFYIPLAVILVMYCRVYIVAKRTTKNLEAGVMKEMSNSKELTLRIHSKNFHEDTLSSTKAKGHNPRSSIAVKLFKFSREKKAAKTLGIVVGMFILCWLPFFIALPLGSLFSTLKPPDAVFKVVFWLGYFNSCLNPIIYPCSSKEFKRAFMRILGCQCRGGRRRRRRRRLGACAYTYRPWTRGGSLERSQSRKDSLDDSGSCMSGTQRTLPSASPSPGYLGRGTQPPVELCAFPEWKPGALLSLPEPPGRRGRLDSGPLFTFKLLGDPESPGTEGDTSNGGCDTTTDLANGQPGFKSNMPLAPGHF
Method in brief: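 Incubation ran 60 min at 25 °C in Tris-HCl buffer (50 mM, pH 7.4, 0.5 mM EDTA) with Wistar rat liver α1B receptor. 10 μM phentolamine set non-specific binding.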

[4] = read-out: Percentage inhibition of ligand binding, Adrenergic α2B (0.03 μM), compound at 0.03 μM, [3H]Rauwolscine, repeat datapoints each shown
[5] = [3H]Rauwolscine, repeat datapoints each shown

Compound | Percentage inhibition of ligand binding, Adrenergic α2B (0.03 μM) [1, 5] | Percentage inhibition of ligand binding, Adrenergic α2A (0.1 μM) [2] | Percentage inhibition of ligand binding, Adrenergic α2B ([1]; 0.03 μM compound) | Percentage inhibition of ligand binding, Adrenergic α2A [2] | Percentage inhibition of ligand binding, Adrenergic α1B [3] | also measured
C/C(=C\n1c2c(c3cc(C)ccc31)C1CCCN1CC2)c1ccc(F)cc1 (single isomer, unassigned) [194b, 7-(2-(4-fluorophenyl)prop-1-enyl)-10-methyl-2,3,5,6,7,11c-hexahydro-1H-indolizino[7,8-b]indole] | – | – | – | – | – | inhibition at 0.03 µM [1, 4]: 103%; inhibition at 0.1 µM [2]: 94%; inhibition at 0.1 µM [3]: 100%
Cc1ccc2c(c1)c1c(n2CC(C)(O)c2ccc(C)nc2)CN(C)CC1 (single isomer, unassigned) [196a] | 103% | 71% | – | – | – | Ki [1]: 1.83 nM; inhibition at 0.03 µM [1, 4]: 93%; Ki [2]: 16.8 nM; inhibition at 0.03 µM [2]: 37%; inhibition at 0.1 µM [2]: 58%; inhibition at 0.03 µM [3]: 30%; inhibition at 0.1 µM [3]: 54.6%
Cc1ccc2c(c1)c1c(n2CCc2ccc(C)nc2)CCN2CCCC12 (single isomer, unassigned) [197b, 9-methyl-6-[2-(6-methyl-pyridin-3-yl)-ethyl]-2,3,4,5,6,10c-hexahydro-1H-3a, 6-diaza-cyclopenta[c]fluorene] | 105% | 56% and 77% | – | – | – | Ki [1]: 0.78 nM; inhibition at 0.03 µM [1, 4]: 101%; Ki [2]: 11.9 nM; inhibition at 0.03 µM [2]: 50%; inhibition at 0.03 µM [3]: 89%; inhibition at 0.1 µM [3]: 96%
Cc1ccc2c(c1)c1c(n2CC(O)c2ccc(C)nc2)CCN2CCCC12 (single isomer, unassigned) [198a, 2-(9-methyl-1,2,3,4,5,10c-hexahydro-3a,6-diaza-cyclopenta[c]fluoren-6-yl)-1-(6-methyl-pyridin-3-yl)-ethanol] | 47% | 10% | – | – | – | Percentage inhibition of ligand binding, Adrenergic α1B (0.1 μM) [3]: 24%
Cc1ccc2c(c1)c1c(n2CC(O)c2ccc(C)nc2)CCN2CCCC12 (single isomer, unassigned) [198b, 2-(9-methyl-1,2,3,4,5,10c-hexahydro-3a,6-diaza-cyclopenta[c]fluoren-6-yl)-1-(6-methyl-pyridin-3-yl)-ethanol] | 103% | 44% | – | – | – | Percentage inhibition of ligand binding, Adrenergic α1B (0.1 μM) [3]: 84%
CCN1CCc2c(c3cc(C)ccc3n2CC(O)c2ccc(C)cc2)C1 (single isomer, unassigned) [203a] | 36% | 71% | – | – | – | Percentage inhibition of ligand binding, Adrenergic α1B (0.1 μM) [3]: 76%
CCN1CCc2c(c3cc(C)ccc3n2CC(O)c2ccc(C)cc2)C1 (single isomer, unassigned) [203b] | 24% | 31% | – | – | – | Percentage inhibition of ligand binding, Adrenergic α1B (0.1 μM) [3]: 47%
CC(=O)NC(Cn1c2c(c3cc(C)ccc31)CN(C)CC2)c1ccncc1 (single isomer, unassigned) [II-1a, N-(2-(1,2,3,4-tetrahydro-2,8-dimethylpyrido[4,3-b]indol-5-yl)-1-(pyridin-4-yl)ethyl)acetamide] | – | – | 14% | 15% | 6% | –
CC(=O)NC(Cn1c2c(c3cc(C)ccc31)CN(C)CC2)c1ccncc1 (single isomer, unassigned) [II-1b, N-(2-(1,2,3,4-tetrahydro-2,8-dimethylpyrido[4,3-b]indol-5-yl)-1-(pyridin-4-yl)ethyl)acetamide] | – | – | 32% | 1% | −7% | –
Cc1ccc2c(c1)c1c(n2CC(C)(c2cnccn2)N(C)C)CCN2CCCC12 (single isomer, unassigned) [II-6a, dimethyl-[1-methyl-2-(9-methyl-1,2,3,4,5,10c-hexahydro-3a,6-diaza-cyclopenta[c]fluoren-6-yl)-1-pyrazin-2-yl-ethyl]-amine] | – | – | – | 45% | 66% | inhibition at 0.03 µM ([1]; 0.03 μM compound, read-out: Percentage inhibition of ligand binding, Adrenergic α2B): 85%
Cc1ccc2c(c1)c1c(n2CC(C)(c2cnccn2)N(C)C)CCN2CCCC12 (single isomer, unassigned) [II-6b, dimethyl-[1-methyl-2-(9-methyl-1,2,3,4,5,10c-hexahydro-3a,6-diaza-cyclopenta[c]fluoren-6-yl)-1-pyrazin-2-yl-ethyl]-amine] | – | – | 102% | 81% | 91% | –
Cc1ccc2c(c1)c1c(n2CC(N)c2ccc(F)cc2)CCN(C)C1 (single isomer, unassigned) [II-11a, 2-(2,8-dimethyl-3,4-dihydro-1H-pyrido[4,3-b]indol-5(2H)-yl)-1-(4-fluorophenyl)ethanamine] | – | – | 53% | 22% | 9% | –
Cc1ccc2c(c1)c1c(n2CC(N)c2ccc(F)cc2)CCN(C)C1 (single isomer, unassigned) [II-11b, 2-(2,8-dimethyl-3,4-dihydro-1H-pyrido[4,3-b]indol-5(2H)-yl)-1-(4-fluorophenyl)ethanamine] | – | – | 89% | 43% | 76% | –
CNC(Cn1c2c(c3cc(C)ccc31)CN(C)CC2)c1ccc(F)cc1 (single isomer, unassigned) [II-12a, 2-(2,8-dimethyl-3,4-dihydro-1H-pyrido[4,3-b]indol-5(2H)-yl)-1-(4-fluorophenyl)-N-methyl ethanamine] | – | – | 89% | 25% | 26% | –

— US8791132B2, “Compounds and methods for treatment of hypertension” (Medivation Technologies, Inc., priority 2011, dated 2014)
